# Entries after “also recorded” stand apart in the source; their conditions may differ. Read-outs that look alike come from different tables or passages of the source.
# Columns and labels:
# HT29 = experiment: Cell proliferation by MTS method, HT29; format: cell-based; conditions: Homo sapiens, HT-29, Colon Cancer
# From the text: (§1) (2) Detection of Cell Proliferation by MTS Method
# (§2) The MTS assay is a method for indirectly determining the number of living cells via colourimetric method. MTS is a newly synthesised tetrazole compound that reflects cell viability, which can be reduced by succinate dehydrogenase in the mitochondria of living cells to an orange-coloured formazan with an absorbance of the reduced product measured at 490 nm being in proportion to the number of living cells, thus reflecting the cell viability. This assay can be used to evaluate the effect of the compound on the proliferation of pancreatic cancer cells, thereby determining the inhibitory effect of the compound on the proliferation of pancreatic cancer cells and to calculate the IC^50. Each cells were inoculated uniformly into a 96-well plate at a density of 1-20×10^3 cells/well, 100 μL per well, and placed in a constant temperature incubator until the cells adhered to the wall. […] Under light-proof conditions, MTS was added and well mixed, the mixture was placed in a constant temperature incubator at 37° C., and the light absorption value were measured using an enzyme marker at 490 nm and the experiment was repeated for three times, IC50 was calculated with GraphPad5 Prism software.
# [1] = test system: mouse pancreatic cancer cells Pan02-Luci; experiment: Pancreatic cancer liver metastasis model, Pan02-Luci in C57BL/6 mice; format: in vivo
# From the text: (1) Animal Experiment on Pancreatic Cancer Liver Metastasis
# Pancreatic cancer is a malignant tumor of the gastrointestinal tract, with rapidly progressing condition, high degree of progression, and very limited clinical treatments, and metastasis is very likely to occur in the terminal stage, among which liver metastasis is the most common, and the occurrence of liver metastasis is also an important manifestation of the seriousness of the disease. In the present invention, by injecting pancreatic cancer cells into the spleen, the tumour cells will directed metastasize to the liver, thereby simulating the occurrence and metastasis process of pancreatic cancer liver metastasis. […] Fluorescence detection of mice was performed using the Small Animal In vivo Imaging Instrument (IVIS), according to the obtained fluorescence values, the mice were divided into control group, WB737 5 mg/kg/d low dose group, 10 mg/kg/d medium dose group and 20 mg/kg/d high dose group, and IACS-010759-10 mg/kg positive compound group, and the mean fluorescence values of each group were ensured to be consistent. […] Metastasiss were recorded using small animal in vivo imaging instrument (IVIS) during the experiment, and body weight of the mice was measured every 3-4 days. […]
# BXPC3 = experiment: Cell proliferation by MTS method, BXPC3; format: cell-based; conditions: Homo sapiens, BXPC-3, Pancreatic Cancer
# From the text: as §1, §2
# DU145 = experiment: Cell proliferation by MTS method, DU145; format: cell-based; conditions: Homo sapiens, DU-145, Prostate Cancer
# From the text: as §1, §2
# SMMC7721 = experiment: Cell proliferation by MTS method, SMMC7721; format: cell-based; conditions: Homo sapiens, SMMC-7721, Liver Cancer
# From the text: as §1, §2
# H1975 = experiment: Cell proliferation by MTS method, H1975; format: cell-based; conditions: Homo sapiens, NCI-H1975, Lung Cancer
# From the text: as §1, §2
# SW1990 = experiment: Cell proliferation by MTS method, SW1990; format: cell-based; conditions: Homo sapiens, Pancreatic Cancer
# From the text: as §1, §2
# [2] = test system: human pancreatic cancer cells MIAPACA-2; experiment: Subcutaneous tumor-bearing experiment in nude mice, MIAPACA-2
# Procedure: (1) Subcutaneous Tumor-Bearing Experiment in Nude Mice
# Subcutaneous tumor-bearing experiment, i. e. tumour cells were injected subcutaneously into nude mice, and the tumour cells absorbed nutrients from the mice and rapidly proliferated to form tumours.
# Tumour volume and mouse weight were measured every four days, and tumour volume was calculated according to the formula of volume=length×width^2×0.52. After 3 weeks post-administration, mice were sacrificed and subcutaneous tumours were peeled off, weighed and photographed.
# BGC823 = experiment: Cell proliferation by MTS method, BGC823; format: cell-based; conditions: Homo sapiens, BGC-823, gastric Cancer
# From the text: as §1, §2
# HCT8 = experiment: Cell proliferation by MTS method, HCT8; format: cell-based; conditions: Homo sapiens, HCT-8, Colon Cancer
# From the text: as §1, §2
# MIAPACA-2 = experiment: Cell proliferation by MTS method, MIAPACA-2; format: cell-based; conditions: Homo sapiens, MIA PaCa-2, Pancreatic Cancer
# From the text: as §1, §2
# Huh7 = experiment: Cell proliferation by MTS method, Huh7; format: cell-based; conditions: Homo sapiens, Huh-7
# Outline: (§3)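 Cells seeded at 1-20×10^3 cells/well and allowed to adhere, then exposed to graded compound concentrations for 24-96 h. MTS added and incubated at 37° C in the dark, absorbance read at 490 nm. Three repeats; IC50 from concentration-response.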
# HepG2 = experiment: Cell proliferation by MTS method, HepG2; format: cell-based; conditions: Homo sapiens, Liver Cancer
# From the text: as §1, §2
# HCC827 = experiment: Cell proliferation by MTS method, HCC827; format: cell-based; conditions: Homo sapiens
# Outline: as §3
# [3] = test system: a variety of tumour cells; experiment: Cell proliferation by MTS method, summary over a variety of tumour cells; format: cell-based; conditions: summary over different types of cancer cells; read-out: half effective proliferation inhibition concentration (IC50) against a variety of tumour cells
# From the text: as §1, §2
# [4] = test system: STAT3-Tyr705 and Ser727 in pancreatic cancer cells; experiment: Western blot of STAT3 phosphorylation in pancreatic cancer cells; format: cell-based; conditions: 12-24 h, FIG. 1A
# From the text: Finally, the expression levels of protein were detected by Odyssey scanner.
# H1299 = experiment: Cell proliferation by MTS method, H1299; format: cell-based; conditions: Homo sapiens, NCI-H1299, Lung Cancer
# From the text: as §1, §2
# Capan-2 = experiment: Cell proliferation by MTS method, Capan-2; format: cell-based; conditions: Homo sapiens
# Outline: as §3
# LNCAP = experiment: Cell proliferation by MTS method, LNCAP; format: cell-based; conditions: Homo sapiens, Prostate Cancer
# From the text: as §1, §2
# H522 = experiment: Cell proliferation by MTS method, H522; format: cell-based; conditions: Homo sapiens, NCI-H522, Lung Cancer
# From the text: as §1, §2
# PC-9 = experiment: Cell proliferation by MTS method, PC-9; format: cell-based; conditions: Homo sapiens, Lung Cancer
# From the text: as §1, §2
# [5] = Acute toxicological experiments, survival of normal mice; conditions: dose of 80 mg/kg, FIG. 5E
smiles,measurement,setting,value
"Cn1c(C(=O)N2CCN(Cc3ccc(OCC(F)(F)F)cc3)CC2)cc2ccc(Oc3cnc(-c4nc(-c5ccc(C(F)(F)F)cc5)no4)cn3)cc21 [Example 6, (6-((5-(3-(4-(trifluoromethyl)phenyl)-1,2,4-oxadiazol-5-yl)pyrazin-2-yl)oxy)1-methyl-1H-indol-2-yl)(4-(4-(2,2,2-trifluoroethoxy)benzyl)piperazin-1-yl)methanone]",IC50,HT29,31.6 nM
same,liver metastasis of tumours,"[1]; Pan02-Luci injected into spleen, C57BL/6 mice, 5, 10, 20 mg/kg/d by gavage, FIG. 4A/4B",dose-dependently inhibits liver metastasis of tumours
same,survival of mice,"[1]; pancreatic tumour liver metastasis model (Pan02), 5, 10, 20 mg/kg by gavage once a day, FIG. 4C",significantly prolongs the survival of mice
same,IC50,BXPC3,7.6 nM
same,IC50,DU145,12.4 nM
same,IC50,SMMC7721,6.4 nM
same,IC50,H1975,11.7 nM
same,IC50,SW1990,1.3 nM
same,effect on the body weight of mice,"[2]; MIAPACA-2 subcutaneous model, gavage, WB737 5-20 mg/kg, IACS-010759 10 mg/kg, FIG. 3D/5D",no significant effect on the body weight of mice; also recorded: good tolerability
same,tumor growth (tumor volume and tumor weight),"[2]; MIAPACA-2 subcutaneous, BALB/c-nude mice, 5, 10, 20 mg/kg by gavage, 3 weeks, FIG. 3",significantly inhibits the growth of pancreatic tumour
same,IC50,BGC823,6.1 ± 0.9 nM
same,IC50,HCT8,20.9 nM
same,IC50,MIAPACA-2,8.8 nM
same,IC50,"Huh7; Liver Cancer, Huh7, read-out: IC50",8.6 nM
same,IC50,"Huh7; Table 1, Huh7, read-out: Tumour cell proliferative activity/IC50(nM) Liver Cancer Huh7",< 10 nM
same,IC50,HepG2,12 nM
same,IC50,"HCC827; Lung Cancer, HCC827, read-out: IC50",0.5 nM
same,IC50,"HCC827; Table 1, HCC827, read-out: Tumour cell proliferative activity/IC50(nM) Lung Cancer HCC827",< 10 nM
same,IC50,[3],0.5 to 32 nM
same,concentration that completely inhibits the expression of STAT3-Tyr705 and Ser727,[4],lower than 50 nM
same,IC50,H1299,26 nM
same,IC50,"Capan-2; Pancreatic Cancer, Capan-2, read-out: IC50",9.4 nM
same,IC50,"Capan-2; Table 1, Capan-2, read-out: Tumour cell proliferative activity/IC50(nM) Pancreatic Cancer Capan-2",< 10 nM
same,IC50,LNCAP,10.3 nM
same,IC50,H522,12 nM
same,IC50,PC-9,21.3 nM
same,mortality of normal mice,[5],no mice died
